Reference: paper PMC11677692, “Analysis of Thiodiphenol in Rat Urine as a Biomarker of Exposure to Temephos” (Journal of Xenobiotics, 2024)
Values joined by “and” are separate entries in the source; they are usually repeats but may differ in a detail not shown here. Equal values may be shown once. Read-outs that look alike come from different tables or passages of the source.

How the values were obtained:
[1] = Urinary excretion kinetics of temephos metabolites after a single oral dose of temephos; assay type: in vivo, adult male Wistar rats; details: for Tmax / k el / half-life: male, Wistar, rat, po; for Tmax / k el / half-life / parent compound in urine: 300 mg/kg; for parent compound in urine: urine samples with and without enzyme hydrolysis, single oral dose 300 mg/kg
Experimental: Animals were individually housed in acrylic metabolism cages for the collection of urine for 8:16 h cycles (inside and outside the cage) for their adaptation during 8 d before treatment. Animals were orally administered with a single dose of temephos (300 mg/kg) emulsified with saline solution (0.9% NaCl). Urine was collected at intervals of 0–8, 8–16, 16–24, 24–48, 60–72, 84–96, 108–120, 132–144, 156–168, 228–240, and 324–336 h. Urine samples were collected and immediately centrifuged at 1600× g for 5 min at 4 °C (Eppendorf 5804R, Hamburg, Germany) and stored at −20 °C until processed for analysis.
(§1) Temephos urinary metabolites were enzymatically deconjugated, according to Cruz-Hurtado et al., with some modifications. Briefly, 200 µL of urine and 2000 IU of β-glucuronidase/sulfatase were added to a 0.5 M sodium acetate buffer at pH 5 to reach a final volume of 1 mL. The mixture was incubated at 50 °C in a water bath for an hour. To determine the optimal concentration of deconjugated temephos metabolites in the enzymatic hydrolysis assay, the concentration of β-glucuronidase/sulfatase was assessed from 250 to 4000 IU/mL. The enzymatic reaction was stopped by adding 10 mL of methylene chloride and cooling at room temperature; the mixture was vortexed for 1 min and then centrifuged at 1600× g for 15 min at room temperature. The organic phase was collected, and another residue extraction was performed using 10 mL of diethyl ether. Both supernatants were pooled and dried using anhydrous sodium sulfate. The solvent evaporated under a nitrogen current. The extracts were stored at −20 °C until analysis by HPLC-DAD. Extracts were dissolved in 200 µL of acetonitrile immediately before analysis. Urinary levels of temephos metabolites were adjusted by creatinine, which was determined using a commercial kit from Randox (CR510, Randox Laboratories Ltd., Crumlin, UK).
Temephos and its metabolites were analyzed by injecting urinary extracts into a liquid chromatograph equipped with a quaternary pump, autosampler, degasser, and UV-Vis Diode-Array detector (Agilent 1200, Agilent Technologies, Palo Alto, CA, USA). A ZORBAX Eclipse XDB C-18 column (4.6 × 150 mm, 5 µm) was used (Agilent Technologies, Deerfield, IL, USA). The detector wavelength was set at 254 nm, the reference wavelength was 550 nm, and the mobile phase was modified from Verdín-Betancourt et al.; it consisted of methanol (A), acetonitrile (B), and water (C), with initial solvent conditions of 27% A, 8% B, and 65% C at a rate of 1 mL/min at 25 °C. After injecting the sample (with different volumes), a 2.5 min linear gradient change was applied to achieve 23.5% A, 12.5% B, and 64% C, which was maintained for 1 min, followed by a second 2.5 min linear gradient change to 18% A, 18% B, and 64% C. Afterwards, another 4 min linear gradient change was applied to reach 20% A, 30% B, and 50% C. This condition was maintained for 2 min. Then, a fourth gradient change was applied, achieving 70% A, 25% B, and 5% C. In the end, the initial conditions were re-established to 27% A, 8% B, and 65% C. The column was equilibrated for 2 min before the next injection. The identity of temephos and its metabolites were confirmed by their retention time (tret) and UV spectra of standards. The concentrations of temephos, TDP, TDP-SO, and BPS were determined using calibration graphs of each compound. The concentration of the non-identified metabolite (NIM) was estimated using the Tem-dox-SO calibration graph due to their similarity in the UV spectrum and tret.
The urinary elimination constant (KElim-U) to determine the half-life of elimination (t1/2 Elim-U) for TDP, BPS, and NIMs was estimated from the slope of the curves in the Rate of Excretion plots (log-linear Rate of excretion (ΔU/Δt) versus mid-point time). […]

[2] = Enzymatic hydrolysis (β-glucuronidase/sulfatase) of urine of temephos-treated rats, HPLC-DAD; assay type: in vitro ADME, rat; details: 50 °C, 1 h, vs non-hydrolyzed urine
Experimental: as §1, with “Both supernatants were pooled and dried using anhydrous sodium sulfate. The solvent evaporated under a nitrogen current. The extracts were stored at −20 °C until analysis by HPLC-DAD. Extracts were dissolved in 200 µL of acetonitrile immediately before analysis.” left out
Temephos and its metabolites were analyzed by injecting urinary extracts into a liquid chromatograph equipped with a quaternary pump, autosampler, degasser, and UV-Vis Diode-Array detector (Agilent 1200, Agilent Technologies, Palo Alto, CA, USA). […] The concentrations of temephos, TDP, TDP-SO, and BPS were determined using calibration graphs of each compound. […]

[3] = urine, male adult rats, single oral dose of temephos 300 mg/kg
[4] = urine, urine, male adult rats, single oral dose of temephos 300 mg/kg, read-out: KElim-U 2nd Phase (converted)
[5] = urine, urine, male adult rats, single oral dose of temephos 300 mg/kg, read-out: t1/2 Elim-U 2nd Phase (converted)
[6] = urine, rats, single oral dose of temephos 300 mg/kg

O=S(=O)(c1ccc(O)cc1)c1ccc(O)cc1 [BPS, 4,4′-sulfonyldiphenol]
Tmax [1, 3]: 9 ± 6 h
k el [1, 4]: 1.09e-05 s⁻¹
half-life [1, 5]: 17.7 h
half-life ([1]; urine, urine, rats, single oral dose of temephos 300 mg/kg, read-out: t1/2 Elim-U (monophasic decline, one-compartment model) (converted)): 17.7 h
AUC0–∞ [1, 3]: 2455 ± 974 nmol-h/mg Creatinine
Cmax-U [1, 3]: 41 ± 16 nmol/mg Creatinine
time after which detection in urine was difficult [1, 6]: 48 h
time detected in urine after dosing [1, 6]: 40 h
increase of level in urine extracts after enzyme hydrolysis [2]: about 2 fold

Oc1ccc(Sc2ccc(O)cc2)cc1 [TDP, 4,4′-thiodiphenol]
Tmax [1, 3]: 9 h
k el ([1]; urine, urine, male adult rats, single oral dose of temephos 300 mg/kg, read-out: KElim-U 1st Phase (converted)): 6.93e-06 s⁻¹
k el [1, 4]: 7.08e-07 s⁻¹
half-life ([1]; urine, urine, male adult rats, single oral dose of temephos 300 mg/kg, read-out: t1/2 Elim-U 1st Phase (converted)): 27.8 h
half-life [1, 5]: 272 h
AUC0–∞ [1, 3]: 297,540 ± 76,013 nmol-h/mg Creatinine
Cmax-U [1, 3]: 366 nmol/mg Creatinine and 366 ± 115 nmol/mg Creatinine
tmax-U [1, 3]: 10 ± 4 h
Cmax fold higher than that of BPS [1, 6]: 8.9 fold
Cmax fold higher than that of NIMs [1, 6]: 4.2 fold
time detected in urine after dosing [1, 6]: up to 320 h
increase of level in urine extracts after enzyme hydrolysis [2]: more than 60 fold

COP(=S)(OC)Oc1ccc(Sc2ccc(OP(=S)(OC)OC)cc2)cc1 [Temephos, temephos]
parent compound in urine [1]: practically undetectable
parent compound in urine ([1]; listed as temephos): only traces
